pIC50: −log10 of the molar value.
Tests used:
[1] = test system: T-cell-transfer colitis model in Rag1−/− mice; test: T-cell-transfer colitis study and histopathology; assay type: in vivo
From the text: FIG. 1 is a graph of body weight as percent change from baseline vs time (in weeks) for treated and untreated mice in which inflammatory colitis has been induced.
FIG. 2 is a gray-scale rendering of a photograph showing the gross morphology of the intestines for treated and untreated mice in which inflammatory colitis has been induced compared to a normal (control) intestine.
T-Cell-Transfer Colitis Study and Histopathology
After 5-7 weeks, mice were killed and colon tissues were excised. Tissues were fixed in 10% buffered formalin and paraffin embedded. The sections (5 μm) of tissue samples stained with hematoxylin and eosin. All the slides were read and scored by an experienced pathologist without previous knowledge of the type of treatment. The degree of inflammation in the epithelium, submucosa and muscularis propria was scored separately.

[2] = test system: NO release in RAW264.7 cells; test: LPS-stimulated nitric oxide (NO) release in murine macrophage RAW264.7 cells (Griess reaction); assay type: cell-based; conditions: Mus musculus; RAW264.7 cells, LPS 1 μg/ml, 24 hours, nitrite by Griess reaction; read-out: IC50 in inhibition of LPS-induced NO release
Procedure: LPS-Stimulated Nitric Oxide (NO) Release in Murine Macrophage RAW264.7 Cells
RAW264.7 cells was cultivated in DMEM supplemented with 10% FBS at 37° C. in a humidified atmosphere of 5% CO2. Cells in 96-well plates (0.1 ml, 3×10^5 cells/ml) were treated with the test compounds. After 30 min, all supernatants were removed and cells were treated with LPS (1 μg/ml) and the test compounds. After 24 hours, the level of nitrite was measured using Griess reaction G2930 (Promega Corp., Madison, Wis.) [see Bredt and Snyder, Ann Rev Biochem 63, 175-195 (1994)]. The test compounds dissolved in DMSO were diluted with culture medium to concentrations from 0.28 to 50,000 nM. The final concentration of DMSO was adjusted to 0.05% (v/v). The nitrite production was measured by spectrophotometry at 520 nm using EnVison 2104 Multilabel Reader (PerkinElmer, Inc., Waltham, Mass.). Each experiment was performed at least in triplicate and plotted using Prism.

[3] = test system: mRNA transcript levels of cytokines IL-6, IL-1β and TNFα in RAW264.7 cells; test: LPS-induced transcriptional activation of cytokines in murine macrophage cells (quantitative PCR); assay type: cell-based; conditions: Mus musculus; RAW264.7 cells, LPS, quantitative PCR of mRNA transcript levels; read-out: IC50 in inhibition of transcriptional activation of the cytokines IL-6, IL-1β and TNFα
Procedure: LPS-Induced Transcriptional Activation of Cytokines in Murine Macrophage Cells RAW264.7 cells were cultivated with or without a treatment of the compounds as described above. Total RNA was isolated the cells using TRIzol reagent (Gibco, Grand Island, N.Y.) for homogenization. The concentration and integrity of RNA were determined by measuring absorbance at a 260 nm/280 nm ratio. Quantitative PCR was performed to determine the mRNA transcript levels of cytokines IL-6, IL-1β and TNFα with specific primers for these target genes. Each experiment was performed at least in triplicate, and plotted using Prim, and an IC50 value was calculated.

[4] = test system: IL-6 secretion in RAW264.7 cells; test: LPS-induced IL-6 secretion in murine macrophage RAW264.7 cells (ELISA); assay type: cell-based; conditions: LPS 1 μg/ml, 24 hours, mouse IL-6 ELISA
Procedure: LPS-Induced IL-6Secretion In Murine Macrophage Raw264.7 Cells RAW264.7 cells were cultivated in Dulbecco's modified Eagle medium (DMEM) (Hyclone, Logan, Utah) supplemented with 10% FBS (fetal bovine serum) (Hyclone, Logan, Utah) at 37° C. in a humidified atmosphere of 5% CO2. Cells in 96-well plates (0.1 ml, 3×10^5 cells/ml) were treated with the test compounds. After 30 min, all supernatants were removed and cells were treated with LPS (lipopolysaccharide) (1 μg/ml) (Sigma-Aldrich Chemical Co., St. Louis, Mo.) and compounds. After 24 hours, the supernatant was collected and mouse IL-6 protein level was measured using ELISA (enzyme-linked immunosorbent assay) (Thermo Scientific, Pittsburgh, Pa.). The compounds dissolved in DMSO were diluted with culture medium to concentrations from 0.28 to 50,000 nM. The final concentration of DMSO was adjusted to 0.05% (v/v). The assay was measured by an absorption reading at 570 nm using EnVison 2104 Multilabel Reader (PerkinElmer, Inc., Waltham, Mass.). Each experiment was performed at least in triplicate, and plotted using Prim, and an IC50 value was calculated.

[5] = target: T1, BRD4_2 (Homo sapiens, UniProt O60885); test: Fluorescence anisotropy binding assay (competition with FITC-labeled MS417 probe), BRD4_2; conditions: FITC-MS417 probe 80 nM, PBS pH 7.4, 1 hour, 25° C.
T1 construct: contains two tandem bromodomains (BrD1 and BrD2)

[6] = target: T2, first bromodomain (BrD1) of human BRD4 (Homo sapiens, UniProt O60885); test: Fluorescence anisotropy binding assay (competition with FITC-labeled MS417 probe); conditions: FITC-MS417 probe 80 nM, PBS pH 7.4, 1 hour, 25° C., read-out: BRD4_1 IC50
T2 construct: the first bromodomain (BrD1) of human BRD4; poly-His (cleaved yes); made in house
Procedure, shortened: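 Competitive fluorescence anisotropy in PBS pH 7.4: 80 nM FITC-MS417 probe, 0.25 to 1 μM tag-cleaved BrD1, titrated unlabeled ligand, 1 hour at 25° C. IC50 values were fitted and converted to Ki using a corrected Cheng-Prusoff equation assuming one-site competition.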

[7] = test system: HIV-1 transgenic mice; conditions: model for HIV-associated nephropathy; cited from earlier work

| pIC50 [2] | pIC50 [4] | pIC50 [5] | pIC50 [6] | Compound | development of colitis ([1]; CD4+CD45RBhi T cells injected intra-peritoneally into Rag1−/− mice) | gross morphology of the intestines ([1]; after 5-7 weeks, FIG. 2, treated mice vs disease group) | loss of body weight ([1]; mice weighed every week, FIG. 1) | pIC50 [3] | inflammation and kidney injury [7] |
| --- | --- | --- | --- | --- | --- | --- | --- | --- | --- |
| 5.30 to 7.00 | 6.00 to 6.70 | 5.00 to 6.00 | > 6.00 | COc1ccc(NC(=O)c2ccc(NC3=C(C)C(=O)CC3)c(Cl)c2)cc1 [Example 04-19, 3-chloro-N-(4-methoxyphenyl)-4-((2-methyl-3-oxocyclopent-1-en-1-yl)amino)benzamide] | inhibits the development of colitis | gross morphology of the intestines is preserved | significantly (P<0.05) inhibits the loss of body weight | 5.30 to 7.00 | – |
| – | – | – | – | COC(=O)C[C@@H]1N=C(c2ccc(Cl)cc2)c2c(sc(C)c2C)-n2c(C)nnc21 [MS417] | – | – | – | – | effectively ameliorated inflammation and kidney injury |

— patent US9884806B2, “Cyclic vinylogous amides as bromodomain inhibitors” (ICAHN SCHOOL OF MEDICINE AT MOUNT SINAI, priority 2013, dated 2018)
